Laboratory results taken from US11786534B2 (TAIHO PHARMACEUTICAL CO., LTD., priority 2019, dated 2023).
Where two headings read alike, the source gives them in different places.

Tests used:
Ba/F3-EGFR (WT) = Ba/F3-EGFR (WT) (Homo sapiens, UniProt P00533); test: Growth inhibition of cell line expressing wild-type EGFR; type: cell-based, mouse; settings: read-out: BaF3_EGFR (WT) IC50 value
Source text: (§1) Test for inhibitory activity against the growth of cell lines expressing wild-type and mutated EGFRs (in vitro)
(§2) (1) Mouse cell line Ba/F3-EGFR (d746-750/T790M/C797S) transfected with and stably expressing EGFR (d746-750/T790M/C797S), mouse cell Ba/F3-EGFR (L858R/T790M/C797S) transfected with and stably expressing EGFR (L858R/T790M/C797S), and mouse cell line Ba/F3-EGFR (WT) transfected with and stably expressing wild-type EGFR were each suspended in RPMI-1640 cell culture medium (RPMI-1640, 10% FBS, 100 unit/ml penicillin, 0.1 mg/ml streptomycin). In the case of the mouse cell line Ba/F3-EGFR (WT), RPMI-1640 cell culture medium containing EGF at a final concentration of 50 ng/ml was used to suspend this cell line. It should be noted that the mouse cell line Ba/F3-EGFR (d746-750/T790M/C797S) transfected with and stably expressing EGFR (d746-750/T790M/C797S), the mouse cell line Ba/F3-EGFR (L858R/T790M/C797S) transfected with and stably expressing EGFR (L858R/T790M/C797S) and the mouse cell line Ba/F3-EGFR (WT) transfected with and stably expressing wild-type EGFR were prepared by using nucleotide sequences encoding the proteins of SEQ ID NOs: 1 and 2 in accordance with Test Example 1 in WO2018/079310, These cell suspensions were seeded in wells of 96-well flat -bottomed plates. The compounds of the present invention were dissolved in DMSO, and serial dilutions of these test compounds were prepared with DMSO (1000-fold of the final concentration). Each test compound solution in DMSO or DMSO alone was diluted with RPMI-1640 cell culture medium for each cell line, and this dilution was added to wells of the cell culture plate such that the final concentration of DMSO was 0.1%, followed by culture at 37° C. for 3 days in a 5% carbon dioxide gas-containing incubator. Before and after addition of each test compound solution in DMSO, the number of cells was counted using the CellTiter-Glo® system (Promega) on the basis of the protocol recommended by Promega.
(§3) In each cell line, the rate of cell growth inhibition was calculated according to the equation shown below in wells to which each test compound was added at different concentrations. Moreover, the inhibition rate at each concentration was plotted for each test compound, and the concentration of each test compound required to give 50% cell survival rate, i.e., IC50 (nM) was determined by curve fitting software XLfit (IDBS).
(§4) Cell survival rate (%)=T/C×100
(§5) T: emission intensity in a well cultured for 3 days after addition of a test compound solution
(§6) C: emission intensity in a well cultured for 3 days after addition of DMSO
(§7) In accordance with the same procedures as shown in Test Example 2, the compounds of the present invention were tested for their inhibitory activity against the growth of the cell hoes expressing wild-type and mutated EGFRs.

[1] = molecular target: Ba/F3-EGFR (L858R/T790M/C797S) (Homo sapiens, UniProt P00533, T790M/C797S/L858R, cells depend on it); test: Growth inhibition of cell line expressing EGFR (L858R/T790M/C797S); type: cell-based, mouse; settings: read-out: BaF3_EGFR (L858R/T790M/C797S) IC50 value
Source text: as §1, §2, §3, §4, §5, §6, §7

[2] = molecular target: T1, human EGFR (d746-750/T790M/C797S) (Homo sapiens, UniProt P00533, C797S/DEL746-750/T790M); test: Inhibitory activity against EGFR (d746-750/T790M/C797S) kinase; type: biochemical
T1 construct: made in house; host or cells: Sf9 insect cells, baculovirus
Procedure, shortened: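 GST-fused cytoplasmic domain of human EGFR d746-750/T790M/C797S (Sf9-expressed) was incubated with 250 nM biotinylated peptide, 6 μM ATP, 10 mM MgCl2 and 10 mM MnCl2 (2.5% DMSO) for 120 min at 25 °C. After an EDTA stop, phosphotyrosine was detected by Eu-PT66/SureLight APC-SA TR-FRET (665/620 nm, excitation 337 nm). Background wells received EDTA before enzyme.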

[3] = Test Example 2, Table 7, culture 3 days, EGF 50 ng/ml, CellTiter-Glo
[4] = Test Example 2, Table 7, culture 3 days, CellTiter-Glo
[5] = Test Example 1, Table 2, ATP 6 μM, 25° C., 120 minutes
[6] = Test Example 4, Table 13, same procedures as Test Example 2

Ba/F3-EGFR (L858R/T790M/C797S), sequence (P00533 whole entry T790M/C797S/L858R): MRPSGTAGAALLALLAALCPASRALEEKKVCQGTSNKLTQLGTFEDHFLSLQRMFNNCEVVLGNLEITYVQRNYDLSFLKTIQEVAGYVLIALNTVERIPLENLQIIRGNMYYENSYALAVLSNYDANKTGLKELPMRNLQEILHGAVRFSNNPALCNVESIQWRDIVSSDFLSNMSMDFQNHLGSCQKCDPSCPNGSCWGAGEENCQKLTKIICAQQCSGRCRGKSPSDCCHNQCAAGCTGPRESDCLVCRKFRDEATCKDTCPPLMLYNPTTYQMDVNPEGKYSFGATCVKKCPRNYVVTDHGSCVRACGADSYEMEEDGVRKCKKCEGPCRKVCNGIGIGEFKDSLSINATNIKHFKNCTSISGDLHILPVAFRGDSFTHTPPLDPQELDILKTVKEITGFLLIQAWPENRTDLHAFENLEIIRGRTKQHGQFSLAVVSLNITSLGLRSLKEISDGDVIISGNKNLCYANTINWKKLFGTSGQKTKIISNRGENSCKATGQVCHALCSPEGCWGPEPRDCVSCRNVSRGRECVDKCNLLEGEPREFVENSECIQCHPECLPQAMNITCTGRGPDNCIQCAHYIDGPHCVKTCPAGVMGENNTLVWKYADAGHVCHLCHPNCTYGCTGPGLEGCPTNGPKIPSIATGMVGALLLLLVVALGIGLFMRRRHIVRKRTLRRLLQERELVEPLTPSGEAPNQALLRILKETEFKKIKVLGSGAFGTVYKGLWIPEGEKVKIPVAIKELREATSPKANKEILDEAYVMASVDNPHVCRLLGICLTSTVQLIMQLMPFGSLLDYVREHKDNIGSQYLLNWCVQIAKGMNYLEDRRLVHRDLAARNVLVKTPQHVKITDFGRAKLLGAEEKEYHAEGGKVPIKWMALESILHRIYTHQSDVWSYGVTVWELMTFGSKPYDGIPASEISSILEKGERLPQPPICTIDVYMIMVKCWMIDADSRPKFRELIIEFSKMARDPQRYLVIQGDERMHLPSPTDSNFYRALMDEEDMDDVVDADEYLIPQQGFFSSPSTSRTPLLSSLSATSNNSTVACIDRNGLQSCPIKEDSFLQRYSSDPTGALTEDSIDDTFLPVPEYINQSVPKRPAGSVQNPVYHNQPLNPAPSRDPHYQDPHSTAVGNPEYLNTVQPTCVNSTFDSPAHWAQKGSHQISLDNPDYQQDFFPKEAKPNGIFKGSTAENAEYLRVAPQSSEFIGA
T1 sequence (P00533 with tags, fused parts or gaps DEL746-750/T790M/C797S): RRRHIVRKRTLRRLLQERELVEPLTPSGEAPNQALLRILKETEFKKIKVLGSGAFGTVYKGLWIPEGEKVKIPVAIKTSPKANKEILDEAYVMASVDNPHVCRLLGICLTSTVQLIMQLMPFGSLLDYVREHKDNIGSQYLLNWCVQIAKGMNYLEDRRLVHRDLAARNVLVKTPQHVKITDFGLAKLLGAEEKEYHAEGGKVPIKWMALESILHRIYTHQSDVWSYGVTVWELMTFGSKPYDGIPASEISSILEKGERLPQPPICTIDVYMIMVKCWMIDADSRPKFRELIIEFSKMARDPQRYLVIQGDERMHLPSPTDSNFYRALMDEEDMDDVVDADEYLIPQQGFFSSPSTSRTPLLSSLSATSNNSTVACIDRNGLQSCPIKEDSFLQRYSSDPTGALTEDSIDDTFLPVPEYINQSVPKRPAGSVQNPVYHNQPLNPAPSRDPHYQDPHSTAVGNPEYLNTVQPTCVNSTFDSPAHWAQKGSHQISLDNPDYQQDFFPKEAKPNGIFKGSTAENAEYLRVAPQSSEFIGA
Ba/F3-EGFR (WT), sequence (P00533 whole entry, stated change not applied): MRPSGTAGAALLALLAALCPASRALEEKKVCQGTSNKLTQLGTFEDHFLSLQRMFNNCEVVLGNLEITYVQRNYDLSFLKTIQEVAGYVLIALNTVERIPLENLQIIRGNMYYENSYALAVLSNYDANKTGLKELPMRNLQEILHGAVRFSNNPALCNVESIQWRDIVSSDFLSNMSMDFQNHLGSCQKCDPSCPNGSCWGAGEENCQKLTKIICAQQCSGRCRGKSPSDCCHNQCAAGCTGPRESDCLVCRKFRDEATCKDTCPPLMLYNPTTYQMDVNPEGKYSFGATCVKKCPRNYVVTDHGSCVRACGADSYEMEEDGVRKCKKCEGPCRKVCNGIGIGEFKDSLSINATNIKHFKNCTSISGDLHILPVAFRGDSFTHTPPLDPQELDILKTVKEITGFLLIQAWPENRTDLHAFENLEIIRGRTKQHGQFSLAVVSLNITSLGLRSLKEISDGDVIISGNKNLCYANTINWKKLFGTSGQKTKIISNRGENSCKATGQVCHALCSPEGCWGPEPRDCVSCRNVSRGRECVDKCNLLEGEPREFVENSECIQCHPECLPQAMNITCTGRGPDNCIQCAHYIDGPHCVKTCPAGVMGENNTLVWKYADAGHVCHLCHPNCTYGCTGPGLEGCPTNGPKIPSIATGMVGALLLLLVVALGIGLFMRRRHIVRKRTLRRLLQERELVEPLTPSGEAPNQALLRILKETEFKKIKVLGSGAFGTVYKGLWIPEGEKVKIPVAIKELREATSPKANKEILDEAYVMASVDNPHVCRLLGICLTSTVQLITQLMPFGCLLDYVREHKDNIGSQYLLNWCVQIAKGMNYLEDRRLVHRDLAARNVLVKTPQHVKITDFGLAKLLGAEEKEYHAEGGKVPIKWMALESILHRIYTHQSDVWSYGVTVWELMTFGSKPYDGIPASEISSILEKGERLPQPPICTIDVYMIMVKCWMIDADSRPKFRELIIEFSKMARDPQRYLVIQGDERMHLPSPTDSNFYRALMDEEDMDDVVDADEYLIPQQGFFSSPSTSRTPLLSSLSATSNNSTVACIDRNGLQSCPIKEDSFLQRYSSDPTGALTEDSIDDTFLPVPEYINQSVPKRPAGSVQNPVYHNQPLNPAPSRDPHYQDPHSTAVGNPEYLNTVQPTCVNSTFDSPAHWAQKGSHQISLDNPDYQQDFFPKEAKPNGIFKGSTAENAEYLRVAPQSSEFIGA

SMILES | GI50 (Ba/F3-EGFR (WT); [3]) [nM] | GI50 [1, 4] [nM] | IC50 [2, 5] [nM] | GI50 (Ba/F3-EGFR (WT); [6]) [nM] | GI50 [1, 6] [nM] | IC50 ([2]; Test Example 3, Table 8; same procedures as 1) in Test Example 1) [nM]
C#Cc1c(-c2cnc3ccccc3c2)c2c(N)ncnc2n1C12CCC(NC(=O)c3cncnc3)(CC1)C2 [Example 2, N-(4-(4-Amino-6-ethynyl-5-(quinolin-3-yl)-7H-pyrrolo[2,3-d]pyrimidin-7-yl)bicyclo-[2.2.1]heptan-1-yl)pyrimidine-5-carboxamide] | 2650 | 185 | < 0.3 | – | – | –
C#Cc1c(-c2cnc3ccccc3c2)c2c(N)ncnc2n1C12CCC(NC(=O)c3ccnn3C3CC3)(CC1)C2 [Example 20, N-(4-(4-Amino-6-ethynyl-5-(quinolin-3-yl)-7H-pyrrolo[2,3-d]pyrimidin-7-yl)bicyclo-[2.2.1]heptan-1-yl)-1-cyclopropyl-1H-pyrazole-5-carboxamide] | – | – | < 0.3 | 2650 | 245 | –
C#Cc1c(-c2cnc3ccccc3c2)c2c(N)ncnc2n1C12CCC(NC(=O)c3ccccc3)(CC1)C2 [Example 1, N-(4-(4-Amino-6-ethynyl-5-(quinolin-3-yl)-7H-pyrrolo[2,3-d]pyrimidin-7-yl)bicyclo-[2.2.1]heptan-1-yl)benzamide] | – | – | < 0.3 | 3490 | 887 | –
C#Cc1c(-c2cnc3ccccc3c2)c2c(N)ncnc2n1C12CCC(CNC(=O)c3ccnn3C)(CC1)C2 [Example 13, N-((4-(4-Amino-6-ethynyl-5-(quinolin-3-yl)-7H-pyrrolo[2,3-d]pyrimidin-7-yl)bicyclo-[2.2.1]heptan-1-yl)methyl)-1-methyl-1H-pyrazole-5-carboxamide] | 3600 | 910 | < 0.3 | – | – | –
C#Cc1c(-c2cnc3ccccc3c2)c2c(N)ncnc2n1C12CCC(NC(=O)c3nccn3C)(CC1)C2 [Example 23, N-(4-(4-Amino-6-ethynyl-5-(quinolin-3-yl)-7H-pyrrolo[2,3-d]pyrimidin-7-yl)bicyclo-[2.2.1]heptan-1-yl)-1-methyl-1H-imidazole-2-carboxamide] | – | – | < 0.3 | 3190 | 649 | –
C#Cc1c(-c2cnc3ccccc3c2)c2c(N)ncnc2n1C12CCC(NC(=O)C(F)F)(CC1)C2 [Example 27, N-(4-(4-Amino-6-ethynyl-5-(quinolin-3-yl)-7H-pyrrolo[2,3-d]pyrimidin-7-yl)bicyclo-[2.2.1]heptan-1-yl)-2,2-difluoroacetamide] | – | – | < 0.3 | > 2000 | 754 | –
C#Cc1c(-c2cnc3ccccc3c2)c2c(N)ncnc2n1C12CCC(NC(=O)c3cnns3)(CC1)C2 [Example 18, N-(4-(4-Amino-6-ethynyl-5-(quinolin-3-yl)-7H-pyrrolo[2,3-d]pyrimidin-7-yl)bicyclo-[2.2.1]heptan-1-yl)-1,2,3-thiadiazole-5-carboxamide] | – | – | < 0.3 | 2480 | 1270 | –
C#Cc1c(-c2cnc3ccccc3c2)c2c(N)ncnc2n1C12CCC(CNC(=O)c3cnc(C)cn3)(CC1)C2 [Example 14, N-((4-(4-Amino-6-ethynyl-5-(quinolin-3-yl)-7H-pyrrolo[2,3-d]pyrimidin-7-yl)bicyclo-[2.2.1]heptan-1-yl)methyl)-5-methylpyrazine-2-carboxamide] | 3500 | 952 | < 0.3 | – | – | –
C#Cc1c(-c2cnc3ccccc3c2)c2c(N)ncnc2n1C12CCC(NC(=O)c3ccnn3C)(CC1)C2 [Example 24, N-(4-(4-Amino-6-ethynyl-5-(quinolin-3-yl)-7H-pyrrolo[2,3-d]pyrimidin-7-yl)bicyclo-[2.2.1]heptan-1-yl)-1-methyl-1H-pyrazole-5-carboxamide] | 3790 | 403 | < 0.3 | – | – | –
C#Cc1c(-c2cnc3ccccc3c2)c2c(N)ncnc2n1[C@@H]1CCN(C(=O)C=C)C1 [Comparative Example B, (R)-1-(3-(4-Amino-6-ethynyl-5-(quinolin-3-yl)-7H-pyrrolo[2,3-d]pyrimidin-7-yl) -pyrrolidin-1-yl)-prop-2-en-1-one, reference compound] | 1050 | 3590 | 26 | – | – | –

The remaining lines, values ahead:

GI50 (Ba/F3-EGFR (WT); [3]) [nM] | GI50 [1, 4] [nM] | IC50 [2, 5] [nM] | GI50 (Ba/F3-EGFR (WT); [6]) [nM] | GI50 [1, 6] [nM] | IC50 ([2]; Test Example 3, Table 8; same procedures as 1) in Test Example 1) [nM] | SMILES
3070 | 290 | < 0.3 | – | – | – | C#Cc1c(-c2cnc3ccccc3c2)c2c(N)ncnc2n1C12CCC(NC(=O)c3cccnn3)(CC1)C2 [Example 49]
– | – | < 0.3 | 3290 | 978 | – | C#Cc1c(-c2cnc3ccccc3c2)c2c(N)ncnc2n1C12CCC(NC(=O)c3nccs3)(CC1)C2 [Example 53]
– | – | – | 2990 | 672 | < 0.3 | C#Cc1c(-c2cnc3ccccc3c2)c2c(N)ncnc2n1C12CCC(NC(=O)[C@@H]3CN(C)CCO3)(CC1)C2 [Example 63, (S)-N-(4-(4-Amino-6-ethynyl-5-(quinolin-3-yl)-7H-pyrrolo[2,3-d]pyrimidin-7-yl) -bicyclo[2.2.1]heptan-1-yl)-4-methylmorpholine-2-carboxamide]
– | – | < 0.3 | 3240 | 843 | – | C#Cc1c(-c2cnc3ccccc3c2)c2c(N)ncnc2n1C12CCC(NC(=O)c3ccco3)(CC1)C2 [Example 41]
– | – | < 0.3 | 2960 | 348 | – | C#Cc1c(-c2cnc3ccccc3c2)c2c(N)ncnc2n1C12CCC(NC(=O)c3cncc(F)c3)(CC1)C2 [Example 35, N-(4-(4-Amino-6-ethynyl-5-(quinolin-3-yl)-7H-pyrrolo[2,3-d]pyrimidin-7-yl)-bicyclo-[2.2.1]heptan-1-yl)-5-fluoronicotinamide]
2410 | 204 | < 0.3 | – | – | – | C#Cc1c(-c2cnc3ccccc3c2)c2c(N)ncnc2n1C12CCC(NC(=O)c3ncco3)(CC1)C2 [Example 46]
– | – | < 0.3 | > 2000 | 448 | – | C#Cc1c(-c2cnc3ccccc3c2)c2c(N)ncnc2n1C12CCC(NC(=O)c3noc(C)n3)(CC1)C2 [Example 36, N-(4-(4-Amino-6-ethynyl-5-(quinolin-3-yl)-7H-pyrrolo[2,3-d]pyrimidin-7-yl)-bicyclo-[2.2.1]heptan-1-yl)-5-methyl-1,2,4-oxadiazole-3-carboxamide]
– | – | < 0.3 | 2360 | 658 | – | C#Cc1c(-c2cnc3ccccc3c2)c2c(N)ncnc2n1C12CCC(NC(C)=O)(CC1)C2 [Example 39, N-(4-(4-Amino-6-ethynyl-5-(quinolin-3-yl)-7H-pyrrolo[2,3-d]pyrimidin-7-yl)-bicyclo-[2.2.1]heptan-1-yl)acetamide]
2970 | 270 | < 0.3 | – | – | – | C#Cc1c(-c2cnc3ccccc3c2)c2c(N)ncnc2n1C12CCC(NC(=O)c3cnc(C)cn3)(CC1)C2 [Example 37, N-(4-(4-Amino-6-ethynyl-5-(quinolin-3-yl)-7H-pyrrolo[2,3-d]pyrimidin-7-yl)-bicyclo-[2.2.1]heptan-1-yl)-5-methylpyrazine-2-carboxamide]
2490 | 223 | < 0.3 | – | – | – | C#Cc1c(-c2cnc3ccccc3c2)c2c(N)ncnc2n1C12CCC(NC(=O)c3cnccn3)(CC1)C2 [Example 48]
